Drawing on ChEMBL document CHEMBL1137749, “Antifungal unsaturated cyclic Mannich ketones and amino alcohols: study of mechanism of action” (2009), this text covers Activity, MIC and inhibition for 4 compounds.

Assay [1] has as its system Candida albicans. In words: Antifungal activity against Candida albicans ATCC 90028 assessed as number of fungal cells without pseudohyphae out of 100 cells at 0.5 time MIC after 0 to 6 hrs by light microscopy. Type of assay: functional.
For a further assay, the system named is Candida parapsilosis. The assay can be described thus: Antifungal activity against Candida parapsilosis ATCC 22019 after 48 hrs by macro tube dilution method. Type of assay: functional. To be noted: Lodderomyces parapsilosis, ATCC 22019, 48 h.
For assay [2], the system named is Candida albicans. The assay can be described thus: Antifungal activity against Candida albicans ATCC 90028 after 48 hrs by macro tube dilution method. Particulars: ATCC 90028, 48 h. It counts as functional.
The test system of the next assay is Aspergillus sp. In words: Antifungal activity against Aspergillus sp. after 48 hrs by macro tube dilution method. It counts as functional.
The test system of another assay is Pichia kudriavzevii. In words: Antifungal activity against Candida krusei ATCC 30068 after 48 hrs by macro tube dilution method. Type of assay: functional. To be noted: ATCC 30068, 48 h.
A further assay concerns Nakaseomyces glabratus. In words: Antifungal activity against Candida glabrata ATCC 3916 after 48 hrs by macro tube dilution method. It counts as functional. Particulars: ATCC 3916, 48 h.
For assay [3], the system named is Candida albicans. In words: Antifungal activity against Candida albicans ATCC 90028 assessed as changes in fungal protein expression at 0.5 time MIC after 1 hr by electrophoresis-based microchip technology. It counts as functional, organism-based.
Another assay is filed under the species Rattus norvegicus. In words: Inhibition of lactate dehydrogenase in Wistar rat kidney at 1.5 times MIC relative to control.
For assay [4], the system named is Candida albicans. In words: Antifungal activity against Candida albicans ATCC 90028 assessed as number of fungal cells with pseudohyphae out of 100 cells at 0.5 time MIC after 0 to 6 hrs by light microscopy. Type of assay: functional.
The test system of assay [5] is Candida albicans. In words: Antifungal activity against Candida albicans ATCC 90028 assessed as changes in fungal protein expression at 2 times MIC after 1 hr by electrophoresis-based microchip technology. Type of assay: functional, organism-based.
Assay [6] has as its system Candida albicans. In words: Inhibition of chitin synthase in Candida albicans ATCC 90028 at 1.5 times MIC by liquid scintillation analyzer relative to nikkomycin.
The next assay relates to Saccharomyces cerevisiae. In words: Antifungal activity against Saccharomyces cerevisiae after 48 hrs by macro tube dilution method. Type of assay: functional.
The subject of assay [7] is Candida albicans. In words: Antifungal activity against Candida albicans ATCC 90028 assessed as inhibition of fungal ergosterol synthesis at 25 ug/mL after 16 hrs by UV spectrophotometry. It counts as functional, organism-based.
The test system of assay [8] is Candida albicans. The assay can be described thus: Antifungal activity against Candida albicans ATCC 90028 assessed as inhibition of fungal ergosterol synthesis at 1.56 ug/mL after 16 hrs by UV spectrophotometry. Type of assay: functional, organism-based.
Assay [9] deals with Candida albicans. In words: Antifungal activity against Candida albicans ATCC 90028 assessed as inhibition of fungal ergosterol synthesis at 0.5 times MIC after 16 hrs by UV spectrophotometry. Type of assay: functional, organism-based.

Values after ≈ are worked out from the molar mass of the structure shown. Active and inactive are the calls of the source.

What is called MIC is the smallest concentration in the dilution series that meets the test's criterion for growth inhibition. A lower MIC goes with greater potency. A word on the inhibition: it is how much of the control response was suppressed. As to `O=C1/C(=C/c2ccccc2)CCCCC1CN1CCCCC1` (configuration not stated), the Activity is 39 with Candida albicans [1] and 47 in the assay on Candida albicans [4]. For the same compound, the MIC came out at 200 µg/mL (≈ 672 µM) in the assay with Candida parapsilosis; 50 µg/mL (≈ 168 µM) with Candida albicans [2]; 100 µg/mL (≈ 336 µM) with Aspergillus sp.; 100 µg/mL (≈ 336 µM) with Pichia kudriavzevii; 100 µg/mL (≈ 336 µM) in the assay on Nakaseomyces glabratus; 100 µg/mL (≈ 336 µM) with Saccharomyces cerevisiae. In addition, the result in the assay on Candida albicans [3], in the assay with Candida albicans [5] and in the assay on Candida albicans [7] was inactive. The inhibition result in the assay listed under Rattus norvegicus was “inactive”. Also, in the assay with Candida albicans [6], the inhibition turned out to be 24%.
`OC(Cn1cncn1)(Cn1cncn1)c1ccc(F)cc1F`: in the assay on Candida albicans [8], the outcome was inactive.
Take `COc1cccc(/C=C2\CCC(CN3CCOCC3)C2=O)c1` (configuration not stated): the minimal inhibitory concentration (MIC) with Candida parapsilosis was 3.12 µg/mL (≈ 10.4 µM); against Candida albicans [2] it was 3.12 µg/mL (≈ 10.4 µM); in the assay with Aspergillus sp., 50 µg/mL (≈ 166 µM); in the assay on Pichia kudriavzevii it was 3.12 µg/mL (≈ 10.4 µM); against Nakaseomyces glabratus, 3.12 µg/mL (≈ 10.4 µM); in the assay with Saccharomyces cerevisiae, 1.56 µg/mL (≈ 5.18 µM). Besides, the result in the assay on Candida albicans [8] and in the assay listed under Rattus norvegicus was inactive. In addition, in the assay with Candida albicans [6], the inhibition result was “inactive”.
On to `COc1ccccc1/C=C1\CCC(CN2CCOCC2)C1=O` (configuration not stated), for which the values for the Activity with Candida albicans [1] and in the assay on Candida albicans [4] were 81 and 9, respectively. The minimum inhibitory concentration (MIC) in the assay on Candida parapsilosis was 12.5 µg/mL (≈ 41.5 µM); with Candida albicans [2] it was 3.12 µg/mL (≈ 10.4 µM); against Aspergillus sp. it was above 200 µg/mL; in the assay on Pichia kudriavzevii, 3.12 µg/mL (≈ 10.4 µM); in the assay on Nakaseomyces glabratus, 12.5 µg/mL (≈ 41.5 µM); against Saccharomyces cerevisiae, 6.25 µg/mL (≈ 20.7 µM). For the same compound, the outcome in the assay with Candida albicans [9] was inactive.
